Key:
[1] = system: DEX-treated mice; experiment: Forced swimming test (FST), neonatal dexamethasone exposure model of depression; format: in vivo; details: juvenile DEX-treated mice, 10 mg/kg i.p. single injection
Procedure: A new animal model of depression was prepared by exposing mice neonatally to dexamethasone (hereinafter abbreviated as DEX). […] The mouse model was prepared and reported only recently by the inventors of the present application and their collaborators (Non Patent Literature 18). […] Further, alterations were found in levels of amino acids (glutamate, glutamine, glycine, D-serine, and L-serine) in mouse brains after the neonatal DEX exposure (Non Patent Literature 18). Those amino acids are known to be associated with NMDA receptor mediated neurotransmission. Thus, it is conceivable that alterations in glutamatergic transmission via the NMDA receptor after the neonatal DEX exposure may be involved in the depression-like behavior in the juvenile mice and the adult mice (Non Patent Literature 18).
The preparation of the animal model of depression and the administration of the agent were specifically performed as described below (FIG. 2A). Male and female ICR mice (9-week-old, Japan SLC, Inc., Hamamatsu, Japan) were used. The mice were given free access to water and feed. A breeding procedure consisted of housing three to four females with one male, for 14 days. On the final day of this period, the females were placed in isolation and checked daily around the expected delivery day. The day of birth was defined as day 0. The mice were injected intraperitoneally with DEX (Wako Pure Chemical Industries, Ltd., Tokyo, Japan) dissolved in saline on day 1, day 2, and day 3 at doses of 0.5 mg/kg body weight, 0.3 mg/kg body weight, and 0.1 mg/kg body weight, respectively. In addition, normal controls were injected with equal volumes (10 ml/kg) of saline.
The antidepressant effects of the agent were investigated for juvenile mice by behavioral tests such as the TST, the PST, the LMT, and a 1% sucrose preference test (SPT) (FIG. 2A). The TST and the PST were performed twice, i.e., the day (27 hours and 29 hours, respectively) and 7 days after the injection of ketamine, and the LMT and the SPT were performed on the day and 2 days after the injection of ketamine. The TST was performed as described below. First, the mice were taken out from cages, and then a small piece of an adhesive tape was bonded onto a portion approximately 2 cm away from the tip of the tail of the mice. […] The immobility time of each mouse was recorded for 10 minutes. […] The immobility time was calculated as a value obtained by subtracting active time from total time, using the analysis software of the apparatus. Cumulative immobility time was recorded over 6 minutes during a test period. […] The locomotor activity of the mice was counted with SCANET MV-40, and the cumulative exercise of the mice was recorded for 60 minutes. […]

[2] = system: DEX-treated mice; experiment: Locomotion test (LMT), neonatal dexamethasone exposure model; format: in vivo; details: juvenile DEX-treated mice, 10 mg/kg i.p., day after injection
Procedure: A new animal model of depression was prepared by exposing mice neonatally to dexamethasone (hereinafter abbreviated as DEX). […] The mouse model was prepared and reported only recently by the inventors of the present application and their collaborators (Non Patent Literature 18). […] Further, alterations were found in levels of amino acids (glutamate, glutamine, glycine, D-serine, and L-serine) in mouse brains after the neonatal DEX exposure (Non Patent Literature 18). Those amino acids are known to be associated with NMDA receptor mediated neurotransmission. Thus, it is conceivable that alterations in glutamatergic transmission via the NMDA receptor after the neonatal DEX exposure may be involved in the depression-like behavior in the juvenile mice and the adult mice (Non Patent Literature 18). […]
The antidepressant effects of the agent were investigated for juvenile mice by behavioral tests such as the TST, the PST, the LMT, and a 1% sucrose preference test (SPT) (FIG. 2A). […] The immobility time of each mouse was recorded for 10 minutes. […] The immobility time was calculated as a value obtained by subtracting active time from total time, using the analysis software of the apparatus. Cumulative immobility time was recorded over 6 minutes during a test period. […] The locomotor activity of the mice was counted with SCANET MV-40, and the cumulative exercise of the mice was recorded for 60 minutes. […]

[3] = system: social defeat stress mice; experiment: Locomotion test (LMT), social defeat stress model; format: in vivo; details: 10 mg/kg i.p., 2 days after injection
Procedure: A social defeat stress model of depression was prepared by bringing C57/B6 male mice into contact with ICR male mice (large aggressive mice) for 10 consecutive days to apply a stress called a “social defeat stress” in accordance with the previous report (Non Patent Literature 19). […] Specifically, an increase in immobility time was found in each of a tail suspension test (TST) and a forced swimming test (FST).
The preparation of the animal model of depression and the administration of the agent were specifically performed as described below (FIG. 3A). Male C57/B6 mice (7-week-old, Japan SLC, Inc., Hamamatsu, Japan) and ICR mice (9-week-old, Japan SLC, Inc., Hamamatsu, Japan) were used. […]
The antidepressant effects of the agent were investigated by behavioral tests such as the TST, the PST, the LMT, and a 1% sucrose preference test (SPT) (FIG. 3A). […] The immobility time of each mouse was recorded for 10 minutes. […] The immobility time was calculated as a value obtained by subtracting active time from total time, using the analysis software of the apparatus. Cumulative immobility time was recorded over 6 minutes during a test period. […] The locomotor activity of the mice was counted with SCANET MV-40, and the cumulative exercise of the mice was recorded for 60 minutes. […] A spine density was quantitatively evaluated by observation with a KEYENCE microscope (BZ-9000, Osaka, Japan).

[4] = system: Morphine Seizures; details: Not blocked by naloxone; Kolesnikov et al., 1997; cited from earlier work

| Compound | immobility time in the FST ([1]; 29 hours after injection) | immobility time in the FST ([1]; 7 days after injection) | locomotion in the LMT [2] | locomotion in the LMT [3] | Morphine Seizures, dose [4] |
| --- | --- | --- | --- | --- | --- |
| CN[C@@]1(c2ccccc2Cl)CCCCC1=O.Cl [R(−)-ketamine] | markedly reduced the immobility time | significantly reduced the immobility time | no difference in locomotion | no difference in locomotion | 0.3 mg/kg |
| CN[C@]1(c2ccccc2Cl)CCCCC1=O [S(+)-ketamine] | markedly reduced the immobility time | did not reduce the immobility time | no difference in locomotion | no difference in locomotion | 0.03 mg/kg |

— patent US11426367B2, “Methods of treating substance abuse” (Perception Neuroscience, Inc., priority 2018, dated 2022)
